Active and inactive are the calls of the source. No cut-off for these calls is given here.
Legend:
Assay type in all cases: cell-based
[1] = Agonist activity at rat BK calcium channel alphabeta1 expressed in CHO cells assessed as increase in current amplitude by automated whole cell patch clamp analysis
CHO [2] = test: Agonist activity at rat BK calcium channel alphabeta1 expressed in CHO cells assessed as maximal current amplitude by automated whole cell patch clamp analysis; conditions: filed as agonist
CHO [3] = test: Agonist activity at rat BK calcium channel alphabeta1 expressed in CHO cells assessed as fold increase in current amplitude at 0.0001 to 33.3 uM by automated whole cell patch clamp analysis; conditions: filed as agonist, dose 0.0001-33.3 µM
CHO [4] = test: Antagonist activity at rat BK calcium channel alphabeta1 expressed in CHO cells assessed as fold change in current amplitude at 1 uM in presence of compound 1 by automated whole cell patch clamp analysis; conditions: filed as antagonist
CHO [5] = test: Antagonist activity at rat BK calcium channel alphabeta1 expressed in CHO cells assessed as decrease in current amplitude at 0.1 to 1 uM in presence of compound 1 by automated whole cell patch clamp analysis; conditions: filed as antagonist, dose 0.1-1 µM
CHO [6] = test: Antagonist activity at rat BK calcium channel alphabeta1 expressed in CHO cells assessed as fold change in current amplitude at 3 uM in presence of compound 1 by automated whole cell patch clamp analysis; conditions: filed as antagonist

SMILES	ECmax (CHO [2])	fold change (FC) (CHO [3])	further results
O=C(Nc1ccc(F)cc1)c1nnc(/C(Cl)=C\c2cccc([N+](=O)[O-])c2)s1	0.72 µM		EC50 [1]: 5 nM
CC[C@@H](C)NS(=O)(=O)c1cc([N+](=O)[O-])ccc1Oc1c(C)c(C(=O)NC[C@@H]2CCCO2)nn1-c1cccc(C)c1C	0.42 µM		EC50 [1]: 2 nM
O=C(Nc1ccccc1)c1nnc(/C(Cl)=C\c2cccc([N+](=O)[O-])c2)s1	0.44 µM	4.05	
CCOC(=O)c1c(NC(=O)[C@H](C)Sc2nnc(CNC(=O)c3ccc(C)c([N+](=O)[O-])c3)n2CCc2ccccc2)sc2c1CCC2	0.14 µM	1.84	
O=C(Cc1ccc([N+](=O)[O-])cc1)NC[C@H](c1ccccc1Cl)c1c[nH]c2ccccc12		2.51	
C/C(=C/C(=O)C[C@H](C)C(=O)O)[C@@H]1CC(=O)[C@@]2(C)C3=C(C(=O)C[C@]12C)[C@@]1(C)CCC(=O)C(C)(C)[C@@H]1C[C@@H]3O	0.78 µM		EC50 [1]: 20 nM
COc1ccc([N+](=O)[O-])cc1/N=c1\ssc2c1-c1cc(C)c(C)cc1NC2(C)C		3.86	
Cc1n[nH]c(C)c1CCc1nc2c3ccccc3nc(SCc3ccc([N+](=O)[O-])cc3)n2n1	0.25 µM	1.23	fold change (FC) (CHO [4]): 2.2; Activity (CHO [5]): Active; fold change (FC) (CHO [6]): 2
COc1ccc(NC(=O)/C(=C\c2cccc([N+](=O)[O-])c2)NC(=O)c2ccc(F)cc2Cl)cc1OC	0.15 µM	1.94	
O=C(NCc1ccc(F)cc1)c1nnc(/C(Cl)=C\c2cccc([N+](=O)[O-])c2)s1		1.73	
O=C1NC(=O)N(c2ccc(F)cc2)C(=O)/C1=C/c1cc(Br)ccc1OCc1cccc([N+](=O)[O-])c1	1.05 µM		EC50 [1]: 20 nM
Cc1ccc(C(=O)NN2C(=O)/C(=C\c3ccc(OC(=O)c4cccc([N+](=O)[O-])c4)cc3)SC2=S)cc1		2.47	
C/C(=N\Nc1ccc([N+](=O)[O-])cc1S(=O)(=O)Nc1ccccc1Cl)c1ccc2ccccc2c1O	0.38 µM	4.05	
COc1cc(/C=C2/C(=O)NC(=O)N(c3ccccc3)C2=O)cc(Br)c1OCc1ccc([N+](=O)[O-])cc1	0.35 µM	4.07	
COc1ccc(C(=O)NC(=S)Nc2ccc(O)c(-c3nc4ccc(C)cc4o3)c2)cc1[N+](=O)[O-]	0.21 µM	2.47	
